Measured values from patent US20240238247A1, “METHOD OF TREATING EXPRESSIVE LANGUAGE DEFICIT IN AUTISTIC HUMANS” (AMS Therapeutics, priority 2022, published 2024).
Entries after “also recorded” stand apart in the source; their conditions may differ.

Experiments:
Type in all cases: in vivo
[1] = test system: autistic human patients with expressive language deficit; experiment: Expressive language (verbal output) graded on 7-point scale (0-6) in autistic patients treated with ethosuximide (ETS); details: for mean expressive language score after six months (Rx): FIG. 1; for Improvement Over Baseline, Expressive language: after six months of ETS therapy; for mean improvement in expressive language score: normal IQ patients (N=8) treated more than one month, 7-point scale of Table 1
Procedure: To assess the effectiveness of ethosuximide as a pharmacological treatment for expressive language deficit, 24 human patients were treated with ethosuximide (ETS) for at least one month, more preferably six months or longer, and their language, social, and behavioral skills were monitored throughout the course of treatment, typically every 1-3 months. Study participants (subjects) were divided into four treatment groups based on neurodevelopmental level (mental status): normal IQ (NIQ), borderline IQ (BIQ), mild mental retardation (mMR), and moderate mental retardation (moMR). Language skills (expressiveness, receptivity), social behavior (social interaction, eye contact, participation), and mood (affect, irritability, agitation) were evaluated at various points in time. Verbal output was graded using a 7-point scale (0-6), where 0=nonverbal, 1=echolalic (the patient can respond by echoing the speaker), 2=single words (the patient can respond in single words), 3=phrases (the patient can respond in a simple phrase), 4=sentences (the patient can respond in a full sentence), 5=spontaneous speech (the patient can speak spontaneously), and 6=mutual speech (the patient can have a true conversation with another person). [table] To evaluate drug efficacy and onset of action, each patient was monitored for changes in language, social behavior, and mood at various times after commencement of ETS therapy. Performance characteristics observed for each function (expressive language, mood, behavior) are summarized in Table 6, at t=1 month after commencement of treatment and t=3 months after commencement of treatment.

autistic human patients [2] = experiment: Social behavior graded on 7-point scale (-3 to +3 vs baseline), based on Aberrant Behavior Checklist, in autistic patients treated with ETS; details: for Improvement Over Baseline, Social behavior: after six months of ETS therapy
Procedure: (§1) To assess the effectiveness of ethosuximide as a pharmacological treatment for expressive language deficit, 24 human patients were treated with ethosuximide (ETS) for at least one month, more preferably six months or longer, and their language, social, and behavioral skills were monitored throughout the course of treatment, typically every 1-3 months. Study participants (subjects) were divided into four treatment groups based on neurodevelopmental level (mental status): normal IQ (NIQ), borderline IQ (BIQ), mild mental retardation (mMR), and moderate mental retardation (moMR). Language skills (expressiveness, receptivity), social behavior (social interaction, eye contact, participation), and mood (affect, irritability, agitation) were evaluated at various points in time. Verbal output was graded using a 7-point scale (0-6), where 0=nonverbal, 1=echolalic (the patient can respond by echoing the speaker), 2=single words (the patient can respond in single words), 3=phrases (the patient can respond in a simple phrase), 4=sentences (the patient can respond in a full sentence), 5=spontaneous speech (the patient can speak spontaneously), and 6=mutual speech (the patient can have a true conversation with another person). Social behavior and mood symptoms, based on those described in the Aberrant Behavior Checklist, an established behavioral rating system used in evaluating patients with intellectual disabilities (see Aman, M. G., et al., “The Aberrant Behavior Checklist: A behavior rating scale for the assessment of treatment effects,” American Journal of Mental Deficiency, 89(5):485-491 (1985), incorporated by reference herein), were also graded on a 7-point scale (0±3). […] Social behavior and mood data are presented below in Table 8. To evaluate drug efficacy and onset of action, each patient was monitored for changes in language, social behavior, and mood at various times after commencement of ETS therapy. Performance characteristics observed for each function (expressive language, mood, behavior) are summarized in Table 6, at t=1 month after commencement of treatment and t=3 months after commencement of treatment.

autistic human patients [3] = experiment: Mood graded on 7-point scale (-3 to +3 vs baseline), based on Aberrant Behavior Checklist, in autistic patients treated with ETS; details: for Improvement Over Baseline, Mood: after six months of ETS therapy
Procedure: as §1

autistic human patients [4] = experiment: Tolerability / side effects of ETS treatment in the study patients
Text: Common side effects reported in the literature for patients receiving ethosuximide treatment for childhood absence epilepsy include abdominal distress, diarrhea, weight loss, hyperactivity, lethargy, leukopenia, and depression. Very few of these symptoms were reported or observed in the patients participating in the study herein described. Eleven patients stopped ETS treatment after 6 months or less. Five of these patients dropped out for non-medical reasons.

[5] = normal IQ patients, Aberrant Behavior Checklist methodology

CCC1(C)CC(=O)NC1=O (centres unmarked) [ETS, 2-ethyl-2-methylsuccinimide]
mean expressive language score after six months (Rx) ([1]; BIQ group, N=4, baseline 1.7, 0-6 scale): 2.75 | Improvement Over Baseline, Expressive language ([1]; BIQ): +1.0 | mean expressive language score after six months (Rx) ([1]; NIQ group, N=8, baseline 2.5, 0-6 scale): 4.4 | Improvement Over Baseline, Expressive language ([1]; NIQ): +2.0 | expressive language score ([1]; Patient A, after 3 months, baseline score 2 (single words)): 3 | expressive language, observation ([1]; Patient A, at 6-9 months): responding in full sentences | expressive language, observation ([1]; Patient A, at 9-12 months): speak spontaneously and even ask questions | Language development ([1]; Patient A, baseline SW, 1 mo.): Increased | Language development (expressive language class) ([1]; Patient A, baseline SW, 3 mo.): PH (Phrases) | Language development (expressive language class) ([1]; Patient A, baseline SW, 6 mo.): SN/SP | Language development (expressive language class) ([1]; Patient A, baseline SW, 9 mo.): SN/SP | Language development (expressive language class) ([1]; Patient A, baseline SW, 12 mo.): SN/SP/MU | expressive language, observation ([1]; Patient A, one month after onset of ETS treatment, baseline score 2): saying more words | Language development (4-word PH) ([1]; Patient B, baseline EC/2-word PH, 3 mo.): 4-word | Language development (expressive language class) ([1]; Patient B, baseline EC/2-word PH, 6 mo.): SN (Sentences) | Language development (expressive language class) ([1]; Patient B, baseline EC/2-word PH, 9 mo.): SN/SP | expressive language, observation ([1]; Patient B, by month 6): speak in sentences | expressive language, observation ([1]; Patient B, by month 9): converse spontaneously at times | expressive language, observation ([1]; Patient B, three months after onset of treatment, echolalic, some two-word phrases before): 3 and 4-word phrases | expressive language skills during treatment ([1]; Patient C, autistic child, 6 months of ETS, FIG. 3): steadily improved | expressive language, observation ([1]; Patients A and B (normal IQ), by 9 months from commencement of treatment, FIG. 2): some spontaneous speech | language skills after ETS treatment was stopped ([1]; Patients C (stopped at 6 months) and D (stopped at 9 months), evaluated several months later, FIG. 3): continued to improve | Expressive language: increased word count (talking more), score change ([1]; after 1 month of treatment): count (+1) | Expressive language, observed performance ([1]; after 3 months of treatment): 2-word phrases and Listening better and makes wants clearer | effect on expressive language skills ([1]; both epileptic (7 of 24) and non-epileptic patients): improved | mean expressive language score after six months (Rx) ([1]; mMR group, N=6, baseline 1.3, 0-6 scale): 2.5 | Improvement Over Baseline, Expressive language ([1]; mMR): +1.2 | mean expressive language score after six months (Rx) ([1]; moMR group, N=2, baseline 0.5, 0-6 scale): 1.0 | Improvement Over Baseline, Expressive language ([1]; moMR): +0.5 | mean improvement in expressive language score [1]: 1.9 points | mean improvement in expressive language score ([1]; listed as ethosuximide): about 2 points | improvements in expressive language and social skills ([1]; one month after commencing daily treatment): evident | retention of language gains after discontinuation ([1]; patients who discontinued treatment (after six months)): did not lose their language gains | Improvement Over Baseline, Social behavior (autistic human patients [2]; BIQ): +1.5 | Improvement Over Baseline, Social behavior (autistic human patients [2]; NIQ): +2.0 | Social behavior, observed performance (autistic human patients [2]; after 1 month of treatment): More engaged | Social behavior: increased eye contact, score change (autistic human patients [2]; after 1 month of treatment): contact (+1) | Social behavior, observed performance (autistic human patients [2]; after 3 months of treatment): Sits in groups | Improvement Over Baseline, Social behavior (autistic human patients [2]; mMR): +1.0 | Improvement Over Baseline, Social behavior (autistic human patients [2]; moMR): +1.0 | gain in social behavior (autistic human patients [2]; [5]): +2 points | Improvement Over Baseline, Mood (autistic human patients [3]; BIQ): +1.4 | Improvement Over Baseline, Mood (autistic human patients [3]; NIQ): +1.2 | Mood / focus observation (autistic human patients [3]; Patient B, 3 months after onset of treatment): more focused and calmer; also recorded: focused; also recorded: calmer | Mood: calmer, score change (autistic human patients [3]; after 1 month of treatment): Calmer (+1) | Mood: more focused, score change (autistic human patients [3]; after 1 month of treatment): More focused (+1) | Mood, observed performance (autistic human patients [3]; after 3 months of treatment): Fewer tantrums | Improvement Over Baseline, Mood (autistic human patients [3]; mMR): +1.0 | Improvement Over Baseline, Mood (autistic human patients [3]; moMR): 0.0 | Improvement Over Baseline, Mood (autistic human patients [3]; moMR, listed as ethosuximide): no change | gain in mood (autistic human patients [3]; [5]): +1.2 points | tolerability (autistic human patients [4]; all ages evaluated (3-24 years), 150-1000 mg b.i.d.): well tolerated | literature side effects (abdominal distress, diarrhea, weight loss, hyperactivity, lethargy, leukopenia, depression) reported or observed (autistic human patients [4]; patients participating in the study): Very few
